From patent US11504339B2, “Compositions comprising urolithin a and uses thereof in treating kidney injury” (priority 2020, dated 2022)

Experiments:
[1] = tested on: NRF2, P53, mitochondrial OXPHOS complexes; test: Western blot of kidney cortex; format: in vivo, mouse
Protocol: Approximately 5 mg of kidney cortex from each mouse was homogenized in cold RIPA buffer. After centrifugation, the supernatant was collected and protein concentration was determined using the Bradford assay (Thermo Scientific, Waltham, Mass.). Approximately 30 μg of protein was subjected to denaturing SDS-PAGE. The gel-separated proteins were transferred to a 0.45 μm nitrocellulose membrane, followed by standard Western blot protocol.
Primary antibodies Nrf2 (CAT #MBS2538072, MyBiosource, San Diego, Calif.), P53 (CAT #928, Cell Signaling Technology, Danvers, Mass.), and GAPDH (CAT #2118, Cell Signaling Technology) were diluted at 1:1000, while Total OXPHOS Cocktail (CAT #ab110413, Abcam, Los Angeles, Calif.) was diluted at 1:250. HRP-conjugated secondary antibodies (Thermo Scientific): goat anti-mouse IgG and anti-rabbit igG were diluted at 1:5000. The ECL reagent was used to develop protein signals, and images were captured by the ChemiDoc imaging system (Bio-Rad, Hercules, Calif.).

[2] = tested on: miRs and stress responsive genes; test: Real-time PCR of renal cortex (miRs and stress responsive genes); format: in vivo, mouse
Protocol: Approximately 5 mg of kidney cortex was homogenized in Trizol solution. Micro RNA and large RNA were sequentially extracted and purified with E.Z.N.A. Micro RNA Kit (Omega Bio-tek, Norcross, Ga.) following manufacturer instructions. RNA concentrations were determined using the NanoQuant plate reader (Tecan Infinite M200). Reverse transcription for large RNA and miRNA were separately carried out using iScript gDNA Clear cDNA Synthesis Kit (Bio-Rad) and the miScript II RT Kit (Qiagen, Hilden, Germany), respectively. HiSpec Buffer was used in the latter RT reaction to target mature miRNA, and 1 μg of template RNA was used for all RT reactions. The CFX96 Touch Real-Time PCR Detection System (Bio-Rad) was used for qPCR. For gene expression, cDNA was amplified using appropriate primers (see Table 1), along with the iTaq Universal SYBR Green Supermix (Bio-Rad). Primers were pre-designed and validated by Harvard PGA Primerbank.
For miRNA expression, cDNA was amplified using miScript Primer Assays for miR-192-5p and miR-140-5p (Qiagen), along with the miScript SYBR Green PCR Kit (Qiagen). ΔCt values were calculated with β-actin (gene expression) or RNU6 (miRNA) normalization, and fold change of the gene of interest between groups was expressed as 2^−ΔΔCt.

[3] = tested on: intracellular NAD; test: Intracellular NAD+ measurement in kidney cortex; format: in vivo, mouse; details: normalized to total protein
Protocol: Approximately 5 mg of kidney cortex from each mouse was homogenized in cold RIPA buffer. After centrifugation, approximately 50 μL of supernatant was processed in triplicate using Amplite Fluorimetric NAD Assay Kit (AAT Bioquest, Sunnyvale, Calif.) while following manufacturer instructions. Fluorescence at 420/480 nm was measured using the plate reader (Tecan Infinite M200) and NAD concentration determined using a standard curve constructed on the same day of the experiment. Protein concentration of the lysate was determined by the Bradford Assay (Bio-Rad) and served as normalization.

[4] = tested on: renal apoptosis; test: TUNEL immunofluorescence of kidney sections; format: in vivo, mouse
Excerpt: Kidney sections were deparaffinized in xylene, rehydrated, and washed. After antigen retrieval, tissue sections were stained with fluorescein-labeled terminal deoxynucleotidyl transferase dUTP nick end labeling (TUNEL) kit (Roche, Mannheim, Germany). Slides were mounted using Vectashield Mounting Media containing DAPI (Vector Laboratories, Burlingame, Calif.). Tissue sections were imaged using the EVOS FL fluorescence microscope at 20× original magnification. TUNEL-positive cells from ten fields per kidney section and five sections per group of at least four animals were quantified using the ImageJ software's particle counter by thresholding for green fluorescence.

[5] = tested on: CIS-resistant A2780 ovarian cancer cells; test: Cell viability of cisplatin-resistant A2780 cells, UA plus CIS; format: cell-based; details: alone vs combination at the same concentrations
[6] = CIS control compared to the P2Ns-GA UA and negative control groups
[7] = CIS control compared with the P2Ns-GA UA and negative control groups
[8] = at sacrifice, normalized to U6 snRNA

Row | Compound | mitochondrial complexes I, II, III, and IV / deficiencies in oxidative phosphorylation ([1]; Western blot, kidney cortex) | renal expression of the NRF2 protein ([1]; compared to the P2Ns-GA UA and negative control groups) | renal expression of Mt1 (NRF2-inducible gene) [2, 6] | renal expression of Srxn1 (NRF2-inducible gene) [2, 6] | renal expression of Txnrd1 (NRF2-inducible gene) [2, 6] | renal expression of Atf3 (P53-inducible gene) [2, 7] | renal expression of Cdkn1a (P21) (P53-inducible gene) [2, 7] | renal expression of Trp53inp1 (SIP) (P53-inducible gene) [2, 7] | renal miR-140-5p expression [2, 8] | renal miR-192-5p expression [2, 8] | PARP1 expression ([2]; normalized to β-actin) | expression of genes associated with hypoxia (HIF1α, Pgk1) ([2]; normalized to β-actin) | intracellular NAD [3] | renal apoptosis (TUNEL positive cells) [4] | cell death / cell viability [5]
1 | N.N.[Cl][Pt][Cl] [CIS, Cis-diamminedichloridoplatinum] | marked decreases | significantly higher | 8-12 fold | 4-5 fold | 7-14 fold | 3-4 fold | 7-49 fold | 9-12 fold | reductions | reductions | elevated | decreased expression | reductions | increased incidences | failed to cause cell death
2 | O=c1oc2cc(O)ccc2c2ccc(O)cc12 [UA, 3,8-Dihydroxybenzo[c]chromen-6-one] |  |  |  |  |  |  |  |  |  |  |  |  |  |  | failed to cause cell death
